“And” between values parts separate entries of the source, which are not always exact repeats. Equal entries are not always repeated. The source made the active and inactive calls.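 The calls were made as follows: active = compounds giving half or more protection of infected cells from virus-caused growth loss, again on retest; inactive = the rest.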
Tested on: CEM cells HIV-1 protection, formazan growth assay
Assay: NCI AIDS Antiviral Assay
Conditions: for IC50: measured here: growth of uninfected CEM cells
Procedure, shortened: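 Protection of CEM cells against HIV-1 was scored from cell growth (soluble formazan) across five concentrations, with parallel uninfected cells. Lack of protection may reflect toxicity.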

O=Nc1c(-c2ccccc2)nc2cc(-c3ccccc3)[nH]n12
EC50: > 18.2 µM | IC50: > 18.2 µM

Clc1ccc(C2=Nc3ccccc3SC(c3ccc(Cl)c(Cl)c3)C2)c(Cl)c1 (centres undefined)
EC50: > 15.8 µM | IC50: > 15.8 µM

Cc1ccnc(NS(=O)(=O)c2ccc(N=Nc3c(N)n(C)c(=O)n(C)c3=O)cc2)n1
outcome: inactive

CC(C)NC(=O)OCCN=c1c2ccccc2ccc2ccccc12
EC50: > 200 µM | IC50: 93.3 µM

CCc1cccc(C(C)C)c1NC(=O)C(=O)C1C(=O)NC(=O)NC1=O
outcome: inactive

CC(O)CS(=O)(=O)O (centres undefined)
EC50: > 200 µM | IC50: > 200 µM

COC(=O)C12C=CC(C1)n1c(=O)n(-c3ccccc3)c(=O)n12 (centres undefined)
EC50: > 295 µM | IC50: 275 µM

N#CCCC[P+](c1ccccc1)(c1ccccc1)c1ccccc1
EC50: > 200 µM | IC50: > 200 µM

Cc1ccc(/C=N/NC2=NCCN2)s1
EC50: > 200 µM | IC50: 166 µM

O=C1NC(N2CCCCC2)=N/C1=C\c1ccco1
EC50: > 200 µM | IC50: > 200 µM

O=c1[nH]c(N/N=C\C(O)C(O)C(O)CO)nc2ccccc12 (centres undefined)
EC50: > 200 µM | IC50: > 200 µM and 97.7 µM

CCOC(=O)/C=C1/Nc2cc(Cl)c(Cl)cc2NC1=O
EC50: > 9.12 µM | IC50: > 9.12 µM

S=c1sc2c(n1-c1ccccc1)NC=NC2S (centres undefined)
EC50: > 468 µM | IC50: 22.9 µM

Cc1cc(=O)[nH]c(NN2C(Cl)C(=O)C2c2cccc(O)c2)n1 (centres undefined)
EC50: > 295 µM | IC50: 1.86 µM

NN1C(=O)CS/C1=N\C(=S)N/N=C1/SCC(=O)N1N
EC50: 57.5 µM | IC50: 85.1 µM

CN=C(Nc1ccc(OC)c2ccccc12)SC
EC50: > 200 µM | IC50: > 100 µM

COc1ccc(COCC[C@H](C)OC2OC(CO[Si](C)(C)C(C)(C)C)C(OC(=O)CCCN=[N+]=[N-])C(OC(=O)CCCN=[N+]=[N-])C2OC(=O)CCCN=[N+]=[N-])cc1 (some centres undefined)
EC50: > 200 µM | IC50: 26.3 µM

CCC1c2ccccc2[C@H]2C(c3ccccc3)=NN(c3ccccc3)[C@H]2N1CC (some centres undefined)
EC50: > 200 µM | IC50: 56.2 µM

Cc1cc(C)cc(Nc2cc(=O)[nH]c(=O)[nH]2)c1
EC50: > 200 µM | IC50: > 200 µM

CC(=O)c1ccc2c(ccc(=O)n2C)c1
EC50: > 468 µM | IC50: 107 µM

COc1nc2c(nnn2C2OC(CO)C(O)C(O)C2O)c(=O)n1C (centres undefined)
outcome: inactive

O=C(Cn1ccnc1[N+](=O)[O-])NCc1ccccc1
outcome: inactive

CC1(C)CC23C4COC(=O)C2CCC1C3CC4=O (centres undefined)
EC50: > 117 µM | IC50: 4.07 µM

Cn1cc(N)cc1C(=O)Nc1ccc(S(=O)(=O)O)c2cc(S(=O)(=O)O)ccc12
EC50: > 490 µM | IC50: > 490 µM

CN(N)C(=O)NCCCl
EC50: > 200 µM | IC50: > 200 µM

O=c1c(O)c(-c2ccccc2)oc2ccccc12.[Zn+2]
EC50: > 200 µM | IC50: 13.2 µM

OCC(O)CNc1ccnc2cc(Cl)ccc12 (centres undefined)
EC50: > 631 µM | IC50: 117 µM

Cc1ccc(Cl)c2c(=O)c3ccc([N+](=O)[O-])cc3sc12
EC50: > 151 µM | IC50: > 151 µM

COC1(OC)CC2CCCCC2=C(C)N1S(=O)(=O)c1ccccc1 (centres undefined)
outcome: inactive

CC(=O)OCC1OC(n2c3c(cc(C#N)c2=O)CCCCCC3)C(OC(C)=O)C(OC(C)=O)C1OC(C)=O (centres undefined)
EC50: > 200 µM | IC50: 170 µM

CCN1CCC(O)(/C=C/c2ccc(C)cc2C)C(C(=O)/C=C/c2ccc(C)cc2C)C1 (centres undefined)
EC50: > 200 µM | IC50: 3.24 µM

O=c1[nH]c(=O)n(C2OC(CO)C(O)C2O)c2nccnc12 (centres undefined)
EC50: > 200 µM | IC50: > 200 µM

CN1C(=O)C2(Nc3ccccc3N2)c2ccccc21
EC50: > 70.8 µM | IC50: > 70.8 µM

CC(Cc1ccccc1)NC(=O)CCNNC(=O)c1ccncc1 (centres undefined)
EC50: > 200 µM | IC50: > 200 µM

Nc1nc(C=O)nc2c1ncn2C1OC(CO)C(O)C1O (centres undefined)
EC50: > 200 µM | IC50: 30.9 µM

NC(Cc1ccccc1)C(=O)OCN1C(=O)C2C3C=CC(C2C1=O)C1C2C(=O)N(COC(=O)C(N)Cc4ccccc4)C(=O)C2C31 (centres undefined)
EC50: > 200 µM | IC50: 31.6 µM

C/C(O)=C(\C=N\C(=S)N=Nc1c(O)[nH]c2ccccc12)C(=O)Nc1ccccc1C
EC50: > 200 µM | IC50: > 200 µM

O=C1c2ccccc2C(=O)N1C/C=N/NS(=O)(=O)c1ccc(Br)cc1
EC50: > 112 µM | IC50: > 112 µM

Cc1ccc(C(=O)Nc2ccc(CP(=O)(O)O)cc2)cc1NC(=O)Nc1cc(C(=O)Nc2ccc(CP(=O)(O)O)cc2)ccc1C
EC50: > 50.1 µM | IC50: > 50.1 µM

CCOC(=O)C1CCCCc2sc(N)c(C#N)c21 (centres undefined)
EC50: > 200 µM | IC50: 191 µM

N#Cc1c(NC(=O)CN2CCOCC2)c(C(=O)Nc2ccccc2)n2c1CCC2
EC50: > 200 µM | IC50: > 200 µM

CN(C)c1ccc(/C=C/c2cc[n+](C)c3ccccc23)cc1
EC50: > 200 µM | IC50: 0.501 µM

CCn1c2ccc(C(=O)CCCN3CCCCC3)cc2c2cc(C(=O)CCCN3CCCCC3)ccc21
EC50: > 43.7 µM | IC50: 0.229 µM

O=C(O)C1CC2C3CCC2C1C3=O (centres undefined)
EC50: > 200 µM | IC50: > 200 µM

O=S(Nc1ccccc1)c1ccccc1Oc1ccccc1 (centres undefined)
outcome: inactive

Cc1ccc(NC2=NCCS2)c(C)c1
EC50: > 200 µM | IC50: > 200 µM

CCOC(=O)c1ccc(N=c2sc3ccccc3nc2Nc2ccc(C(=O)OCC)cc2)cc1
EC50: > 200 µM | IC50: > 200 µM

O=C(O)Cc1cc(=O)oc2c1ccc1ccccc12
EC50: > 200 µM | IC50: 135 µM

CSc1nc2c(=O)oc(-c3ccc(Cl)cc3)nc2s1
EC50: > 200 µM | IC50: 110 µM

Nc1nc2c(ncn2CC2CCOC2=O)c(=O)[nH]1 (centres undefined)
outcome: inactive

O=C(/C(=N/Nc1ccc([N+](=O)[O-])cc1)c1ccccc1)c1ccccc1
outcome: inactive

COc1ccc2c(c1)OC(C)(C)C1c3c(cc(OC)c(O)c3C)OC21 (centres undefined)
EC50: > 200 µM | IC50: 9.33 µM

O=C(O)C1CCC(C(=O)O)SS1 (centres undefined)
EC50: > 1200 µM | IC50: > 1200 µM

O=C(NNc1nc(-c2ccccc2)cs1)Nc1ccccc1
EC50: > 200 µM | IC50: 40.7 µM

CCCC[C@H]1C(=O)O[C@H](C)[C@H](NC(=O)c2cccc(NC=O)c2O)C(=O)O[C@@H](C)[C@@H]1OC(=O)CC(C)C
EC50: > 1 µM | IC50: 0.0389 µM

CCC(C)C(NC(=O)C(CCCCN)NC(=O)CNC(=O)C(NC(=O)C(NC(=O)C(NC(=O)C(Cc1ccccc1)NC(=O)C(C)NC(=O)C(CCCNC(=N)N)NC(=O)CNC(=O)C1CCCN1C(=O)CNC(=O)C(CCCNC(=N)N)NC(=O)C(CCC(N)=O)NC(=O)C(NC(=O)C(CCCNC(=N)N)NC(=O)C(NC(=O)C(CO)NC(=O)C(CCCCN)NC(=O)C(CCCNC(=N)N)NC(=O)C(NC(=O)C(CC(N)=O)NC(=O)C(N)CC(=O)NC1OC(CO)C(O)C(O)C1NC(C)=O)C(C)O)C(C)CC)C(C)CC)C(C)C)C(C)O)C(C)CC)C(=O)NCC(N)=O (centres undefined)
EC50: > 50.1 µM | IC50: > 50.1 µM

O=C(CCc1ccccc1)CC1OC(=O)C(Cl)=C1Cl (centres undefined)
EC50: > 33.1 µM | IC50: > 33.1 µM

Oc1ccc([Te]CCNCC[Te]c2ccc(O)cc2)cc1
EC50: > 10 µM | IC50: 5.89 µM

Clc1ccc(CSc2ccc3nncc(SCc4ccc(Cl)c(Cl)c4)c3c2)cc1Cl
EC50: > 41.7 µM | IC50: 37.2 µM

CC(C)CCC[C@@H](C)[C@H]1CC[C@H]2[C@@H]3CC[C@H]4C[C@@H](CC/C=C(/c5ccc(OCc6ccccc6B(O)O)c(C(=O)O)c5)c5cc(Cl)c(OCc6ccccc6B(O)O)c(C(=O)O)c5)CC[C@]4(C)[C@H]3CC[C@]12C
EC50: > 200 µM | IC50: > 200 µM

COc1ccc(C=C(C(C)=O)C(C)=O)cc1
EC50: > 437 µM | IC50: 58.9 µM
